Tests used:
E. coli ATCC 25922 [1] = assay: Minimum inhibitory concentration, ampicillin sensitive strains; type: cell-based, Escherichia coli; settings: Escherichia coli, ATCC25922; E. coli ATCC 25922, Gram-negative, ampicillin sensitive; read-out: Minimum inhibitory concentrations
Experimental: (§1) Each one of the 24 combinations of the ionic liquids were tested with following 9 bacteria: • Escherichia coli ATCC25922 • Staphylococcus aureus ATCC25923 • Klebsiella pneumonia • Staphylococcus epidermidis • Enterococcus fecalis • E. coli Tem CTXM9 • E. coli CTXM2 • E. coli AmpCMox2 • Saccharomyces cerevisiae PYCC 4072
(§2) These bacteria were tested in Vitek2 systems from bioMérieux. Bacteria were grown on Trypticase soy agar for 24 hours at 37° C. prior to each test. The bacteria assays were made in Tryptic Soy Broth.

K. pneumoniae = assay: as above; type: cell-based, Klebsiella pneumonia; settings: K. pneumoniae, Gram-negative, ampicillin sensitive
Experimental: as §1, §2

E. fecalis [2] = assay: as above; type: cell-based, Enterococcus fecalis; settings: Enterococcus; E. fecalis, Gram-positive, ampicillin sensitive; read-out: Minimum inhibitory concentrations
Experimental: as §1, §2

S. epidermis [3] = assay: as above; type: cell-based, Staphylococcus epidermidis; settings: Staphylococcus epidermidis; S. epidermis, Gram-positive, ampicillin sensitive; read-out: Minimum inhibitory concentrations
Experimental: as §1, §2

E. coli CTX M2 = assay: Minimum inhibitory concentration, ampicillin resistant strains; type: cell-based; settings: Escherichia coli, CTXM2; E. coli CTX M2, ampicillin resistant; read-out: Minimum inhibitory concentrations
Experimental: as §1, §2

E. coli TEM CTX M9 [4] = assay: as above; type: cell-based; settings: Escherichia coli; E. coli TEM CTX M9, ampicillin resistant; read-out: Minimum inhibitory concentrations
Experimental: as §1, §2

E. coli ATCC 25922 [5] = assay: Growing rates in presence and absence of compound; type: cell-based, Escherichia coli; settings: E. coli ATCC 25922, conc. tested 0.5 mM
Experimental: as §2

S. aureus ATCC 25923 = assay: Growing rates in presence and absence of compound; type: cell-based, Staphylococcus aureus; settings: S. aureus ATCC 25923, conc. tested 0.0005 mM
Experimental: as §2

K. pneumonia = assay: Growing rates in presence and absence of compound; type: cell-based, Klebsiella pneumonia; settings: conc. tested 0.5 mM
Experimental: as §2

E. fecalis [6] = assay: Growing rates in presence and absence of compound; type: cell-based, Enterococcus fecalis; settings: conc. tested 0.005 mM
Experimental: as §2

S. epidermis [7] = assay: Growing rates in presence and absence of compound; type: cell-based, Staphylococcus epidermidis; settings: conc. tested 0.005 mM
Experimental: as §2

E. coli AmpC MOX2 = assay: Growing rates in presence and absence of compound; type: cell-based; settings: E. coli AmpC Mox2, conc. tested 0.05 mM
Experimental: as §2

E. coli TEM CTX M9 [8] = assay: Growing rates in presence and absence of compound; type: cell-based; settings: E. coli TEM CTX M9, conc. tested 0.05 mM
Experimental: as §2

SF (skin fibroblasts) = assay: MTT cellular viability/proliferation, primary human cells; type: cell-based; settings: Homo sapiens, Skin fibroblast, MTT assay
Experimental: (§3) At about 70-80% confluence, cells were enzymatically detached with 0.05% trypsin and 0.5 mM EDTA and seeded at 10^4 cells cm^−2.
(§4) After an attachment period of 24 hours, the culture medium was renewed, and supplemented with different concentrations (0.005-500 mM) of the ampicillin derived ionic liquid. Cell cultures were maintained in a 5% CO2 humidified atmosphere at 37° C.
(§5) Cellular viability/proliferation was assessed by the MTT assay at days 1, 3 and 5 of the culture. This assay is based on the reduction of 3-(4,5-dimethylthiazol-2-yl)-2,5-diphenyltetrazolium bromide (MTT) to a purple formazan product by viable cells.
(§6) Shortly, cultured cells were incubated at 37° C. with 0.5 mg ml −1 of MTT for 4 hours. The culture medium was then removed; the stained product dissolved with dimethylsulfoxide, and absorbance determined at 550 nm in an ELISA plate rewader. Results were expressed as absorbance per cm2.
(§7) The values of the […] (IC50) and the median lethal dose (LD50) were obtained from nonlinear regression analysis of concentration effect curves using the GGraphPad Prism Software.
(§8) It is used to measure the efficacy of a compound in inhibiting any biochemical or biological function.

[9] = test system: gingival fibroblasts (GF); assay: as above; type: cell-based; settings: Homo sapiens, Fibroblast, MTT assay
Experimental: as §3, §4, §5, §6, §7, §8

[10] = test system: HepG2 (hepatocellular liver carcinoma cell); assay: MTT cellular viability/proliferation, cancer cell lines; type: cell-based, human; settings: Homo sapiens; HepG2, MTT assay
Experimental: as §3, §4, §5, §6, §7, §8

[11] = test system: MG63 (osteosarcoma cell line); assay: as above; type: cell-based, human; settings: Homo sapiens, MG-63; MG63, MTT assay
Experimental: as §3, §4, §5, §6, §7, §8

[12] = test system: PC3 (prostate cancer cell line); assay: as above; type: cell-based, human; settings: Homo sapiens; PC3, MTT assay
Experimental: as §3, §4, §5, §6, §7, §8

[13] = test system: RKO (colon cancer cell line); assay: as above; type: cell-based, human; settings: Homo sapiens, MTT assay
Experimental: as §3, §4, §5, §6, §7, §8

[14] = test system: T47D (ductal breast epithelial tumour cell line); assay: cells; type: cell-based; settings: Homo sapiens; T47D, MTT assay
Experimental: as §3, §4, §5, §6, §7, §8

Compound: CC1(C)S[C@@H]2[C@H](NC(=O)[C@H](N)c3ccccc3)C(=O)N2[C@H]1C(=O)O [[P6,6,6,14][Amp]]
- MIC (E. coli ATCC 25922 [1]): 2500 µM
- Minimum inhibitory concentrations (K. pneumoniae): 5000 µM
- MIC (K. pneumoniae; Klebsiella pneumoniae, read-out: Minimum inhibitory concentrations): 5000 µM
- MIC (E. fecalis [2]): 50 µM
- MIC (S. epidermis [3]): 50 µM
- MIC (E. coli CTX M2): 500 µM
- MIC (E. coli TEM CTX M9 [4]): 500 µM
- Growing rate with compound (E. coli ATCC 25922 [5]): 0.0007 ± 0.0001 min⁻¹
- Decreasing rate (E. coli ATCC 25922 [5]; with compound vs no compound): 0.035
- Growing rate with compound (S. aureus ATCC 25923): 0.0004 ± 0.0003 min⁻¹
- Decreasing rate (S. aureus ATCC 25923; with compound vs no compound): 0.077
- Growing rate with compound (K. pneumonia): 0.00045 ± 0.00007 min⁻¹
- Decreasing rate (K. pneumonia; with compound vs no compound): 0.18
- Growing rate with compound (E. fecalis [6]): 0.0009 ± 0.0004 min⁻¹
- Decreasing rate (E. fecalis [6]; with compound vs no compound): 0.28
- Growing rate with compound (S. epidermis [7]): 0.0006 ± 0.0000 min⁻¹
- Decreasing rate (S. epidermis [7]; with compound vs no compound): 0.13
- Growing rate with compound (E. coli AmpC MOX2): 0.00077 ± 0.00006 min⁻¹
- Decreasing rate (E. coli AmpC MOX2; with compound vs no compound): 0.24
- Growing rate with compound (E. coli TEM CTX M9 [8]): 0.00067 ± 0.00006 min⁻¹
- Decreasing rate (E. coli TEM CTX M9 [8]; with compound vs no compound): 0.20
- IC50 (SF (skin fibroblasts)): 249 nM
- IC50 [9]: 173 nM
- IC50 [10]: 322 nM
- IC50 [11]: 312 nM
- IC50 [12]: 354 nM
- IC50 [13]: 180 nM
- IC50 [14]: 264 nM
